Source: ChEMBL document CHEMBL5614443, “Hybrids of 3-Hydroxypyridin-4(1H)-ones and Long-Chain 4-Aminoquinolines as Potent Biofilm Inhibitors of Pseudomonas aeruginosa Potentiate Tobramycin and Polymyxin B Activity” (J Med Chem, 2024)
Activity calls are given as the source filed them. No cut-off for these calls is given here.

Columns and labels:
Pseudomonas aeruginosa [1] = assay: Antibacterial activity against Pseudomonas aeruginosa 27853 assessed as inhibition of bacterial growth incubated for 24 hrs by CLSI protocol based method; assay type: functional, organism-based
Pseudomonas aeruginosa [2] = assay: Antibacterial activity against Pseudomonas aeruginosa PAO1 assessed as inhibition of bacterial growth incubated for 24 hrs by CLSI protocol based method; assay type: functional
Pseudomonas aeruginosa [3] = assay: Antibiofilm activity against Pseudomonas aeruginosa PAO1 assessed as decrease in biofilm formation incubated for 24 hrs by LIVE/DEAD BacLight staining based 3D confocal laser scanning microscopy; assay type: functional, organism-based; conditions: dose 1-10 µM
Pseudomonas aeruginosa [4] = assay: Antibacterial activity against Pseudomonas aeruginosa PA14 assessed as inhibition of bacterial growth incubated for 24 hrs by CLSI protocol based method; assay type: functional, organism-based
[5] = Inhibition of quorum sensing system in Pseudomonas aeruginosa PAO1 transfected with mini-ctx-rhlA-lacZ reporter gene assessed as decrease in beta-galactosidase activity incubated for 6 hrs by Miller assay; conditions: dose 1.25-20 µM
Pseudomonas aeruginosa [6] = assay: Antibiofilm activity against Pseudomonas aeruginosa harboring pvds-deficient mutant assessed as inhibition of biofilm formation at 0.1 to 20 uM incubated for 24 hrs by crystal violet staining based analysis; assay type: functional, organism-based; conditions: dose 0.1-20 µM
Pseudomonas aeruginosa [7] = assay: Inhibition of motility in Pseudomonas aeruginosa PAO1 assessed as reduction in swimming movements incubated for 16 hrs by motility assay; assay type: functional, organism-based; conditions: dose 1.25-50 µM
Pseudomonas aeruginosa [8] = assay: Inhibition of motility in Pseudomonas aeruginosa PAO1 assessed as reduction in twitching movements at 50 uM incubated for 16 hrs by motility assay; assay type: functional, organism-based
Pseudomonas aeruginosa [9] = assay: Antibacterial activity against Pseudomonas aeruginosa clinical isolate 1129 assessed as inhibition of bacterial growth incubated for 24 hrs by CLSI protocol based method; assay type: functional, organism-based
Pseudomonas aeruginosa [10] = assay: Antivirulence activity in Pseudomonas aeruginosa clinical isolate 0815 assessed as reduction in rhamnolipid production at 10 uM incubated for 24 hrs by absorbance based microtiter plate reader analysis; assay type: functional, organism-based
Pseudomonas aeruginosa [11] = assay: Antivirulence activity in Pseudomonas aeruginosa clinical isolate 1121 assessed as reduction in rhamnolipid production at 10 uM incubated for 24 hrs by absorbance based microtiter plate reader analysis; assay type: functional, organism-based
Pseudomonas aeruginosa [12] = assay: Antivirulence activity in Pseudomonas aeruginosa clinical isolate 1167 assessed as reduction in pyocyanin production at 10 uM incubated for 24 hrs by absorbance based analysis; assay type: functional, organism-based
Pseudomonas aeruginosa [13] = assay: Antivirulence activity in Pseudomonas aeruginosa clinical isolate 1121 assessed as reduction in pyocyanin production at 10 uM incubated for 24 hrs by absorbance based analysis; assay type: functional, organism-based
Pseudomonas aeruginosa [14] = assay: Antibiofilm activity against Pseudomonas aeruginosa clinical isolate 0815 assessed as reduction in biofilm content at 10 uM incubated for 24 hrs by crystal violet staining based analysis; assay type: functional, organism-based
Pseudomonas aeruginosa [15] = assay: Synergistic antibacterial activity against Pseudomonas aeruginosa PAO1 assessed as reduction in cell viability at 10 to 50 uM incubated for 24 hrs in the presence of 1/8 MIC of tobramycin by LB agar plate method; assay type: functional, organism-based; conditions: dose 10-50 µM
Pseudomonas aeruginosa [16] = assay: Synergistic antibacterial activity against Pseudomonas aeruginosa PAO1 assessed as fold reduction in bacterial survival rate at 50 uM incubated for 24 hrs in presence of 1/2 MIC of tobramycin by LB agar plate method relative to tobramycin alone; assay type: functional
Pseudomonas aeruginosa [17] = assay: Synergistic antibacterial activity against Pseudomonas aeruginosa PAO1 assessed as fold reduction in bacterial survival rate at 50 uM incubated for 24 hrs in presence of 1/2 MIC of […] by LB agar plate method relative to polymyxin B alone; assay type: functional
Pseudomonas aeruginosa [18] = assay: Synergistic antibacterial activity against Pseudomonas aeruginosa PAO1 assessed as fold reduction in bacterial survival rate incubated for 24 hrs in presence of ceftazidime by LB agar plate method; assay type: functional
Pseudomonas aeruginosa [19] = assay: Synergistic antibacterial activity against Pseudomonas aeruginosa PAO1 assessed as fold reduction in bacterial survival rate incubated for 24 hrs in presence of meropenem by LB agar plate method; assay type: functional
Pseudomonas aeruginosa [20] = assay: Synergistic antibacterial activity against Pseudomonas aeruginosa PAO1 assessed as fold reduction in bacterial survival rate incubated for 24 hrs in presence of tetracycline by LB agar plate method; assay type: functional
Pseudomonas aeruginosa [21] = assay: Synergistic antibacterial activity against Pseudomonas aeruginosa clinical isolate 0815 assessed as reduction in bacterial viability at 10 to 50 uM incubated for 24 hrs in presence of 1/2 MIC of tobramycin by LB agar plate method; assay type: functional, organism-based; conditions: dose 10-50 µM
Pseudomonas aeruginosa [22] = assay: Synergistic antibacterial activity against Pseudomonas aeruginosa clinical isolate 0815 assessed as reduction in bacterial viability at 10 to 50 uM incubated for 24 hrs in presence of 1/8 MIC of tobramycin by LB agar plate method; assay type: functional, organism-based; conditions: dose 10-50 µM
Pseudomonas aeruginosa [23] = assay: Synergistic antibacterial activity against Pseudomonas aeruginosa clinical isolate 1167 assessed as reduction in bacterial viability at 10 to 50 uM incubated for 24 hrs in presence of 1/4 MIC of tobramycin by LB agar plate method; assay type: functional, organism-based; conditions: dose 10-50 µM
Pseudomonas aeruginosa [24] = assay: Synergistic antibacterial activity against Pseudomonas aeruginosa clinical isolate 1121 assessed as reduction in bacterial viability at 10 to 50 uM incubated for 24 hrs in presence of 1/4 MIC of tobramycin by LB agar plate method; assay type: functional, organism-based; conditions: dose 10-50 µM
Pseudomonas aeruginosa [25] = assay: Synergistic antibacterial activity against Pseudomonas aeruginosa clinical isolate 1121 assessed as reduction in bacterial viability at 10 to 50 uM incubated for 24 hrs in presence of 1/8 MIC of tobramycin by LB agar plate method; assay type: functional, organism-based; conditions: dose 10-50 µM
Pseudomonas aeruginosa [26] = assay: Synergistic antibacterial activity against Pseudomonas aeruginosa clinical isolate 0815 assessed as reduction in bacterial viability at 10 to 50 uM incubated for 24 hrs in presence of 1/4 MIC of polymyxin B by LB agar plate method; assay type: functional, organism-based; conditions: dose 10-50 µM
Pseudomonas aeruginosa [27] = assay: Synergistic antibacterial activity against Pseudomonas aeruginosa clinical isolate 1121 assessed as reduction in bacterial viability at 10 to 50 uM incubated for 24 hrs in presence of 1/4 MIC of polymyxin B by LB agar plate method; assay type: functional, organism-based; conditions: dose 10-50 µM
Pseudomonas aeruginosa [28] = assay: Synergistic antibacterial activity against Pseudomonas aeruginosa clinical isolate 1121 assessed as fold reduction in bacterial viability at 50 uM incubated for 24 hrs in presence of 1/2 MIC of tobramycin by LB agar plate method relative to tobramycin alone; assay type: functional
[29] = Cytotoxicity against African green monkey Vero cells assessed as reduction in cell viability at <=100 uM incubated for 24 hrs by MTT assay; assay type: toxicity, cell-based; conditions: chlorocebus sabaeus
[30] = Cytotoxicity against African green monkey Vero cells assessed as reduction in cell viability at 200 uM incubated for 24 hrs by MTT assay; assay type: toxicity, cell-based; conditions: chlorocebus sabaeus
Pseudomonas aeruginosa [31] = assay: Antibacterial activity against Pseudomonas aeruginosa PAO1 infected in Caenorhabditis elegans assessed as worm survival at 50 uM by bright-field microscopic analysis (reference value: 24 hrs); assay type: functional
Pseudomonas aeruginosa [32] = assay: Antibacterial activity against Pseudomonas aeruginosa PAO1 infected in Caenorhabditis elegans assessed as worm survival rate at 50 uM measured after 96 hrs in presence of polymyxin B at 1/2 MIC by bright field microscopic analysis relative to control; assay type: functional
Pseudomonas aeruginosa [33] = assay: Induction of Fe3+ chelating activity in Pseudomonas aeruginosa PAO1 assessed as increase in pyochelin production at 2.5 to 50 uM incubated for 24 hrs by fluorescence microplate reader; conditions: dose 2.5-50 µM
Pseudomonas aeruginosa [34] = assay: Induction of Fe3+ chelating activity in Pseudomonas aeruginosa PAO1 assessed as increase in pyochelin production by measuring fold change at 50 uM incubated for 24 hrs by fluorescence microplate reader

In the case of `Cc1cc(=O)c(O)c(C(=O)NCCCCCCCCNc2ccnc3cc(Cl)ccc23)n1C.Cl`, the Activity (Pseudomonas aeruginosa [1]) is reported as “inactive”, the MIC (Pseudomonas aeruginosa [2]) is reported as no less than 512 µM and the Activity (Pseudomonas aeruginosa [3]) is reported as “Dose-Dependent Effect”. For the same compound, the Activity (Pseudomonas aeruginosa [4]) was “inactive”, the inhibition [5] was “Dose-Dependent Effect” and the Activity (Pseudomonas aeruginosa [6]) was “Active”. For the same compound, the inhibition (Pseudomonas aeruginosa [7]) was “Dose-Dependent Effect”, the inhibition (Pseudomonas aeruginosa [8]) was “Active” and the Activity (Pseudomonas aeruginosa [9]) was “inactive”. The Activity (Pseudomonas aeruginosa [10]) was “Active”, the Activity (Pseudomonas aeruginosa [11]) was “Active” and the Activity (Pseudomonas aeruginosa [12]) was “Active”. For the same compound, the Activity (Pseudomonas aeruginosa [13]) was “Active”, the Activity (Pseudomonas aeruginosa [14]) was “Active” and the Activity (Pseudomonas aeruginosa [15]) was “Active”. The “fold change (FC)” value (Pseudomonas aeruginosa [16]) was roughly 60, the “fold change (FC)” value (Pseudomonas aeruginosa [17]) was roughly 100 and the “fold change (FC)” value (Pseudomonas aeruginosa [18]) was less than 10. For the same compound, the “fold change (FC)” value (Pseudomonas aeruginosa [19]) was less than 10, the “fold change (FC)” value (Pseudomonas aeruginosa [20]) was less than 10 and the Activity (Pseudomonas aeruginosa [21]) was “Active”. For the same compound, the Activity (Pseudomonas aeruginosa [22]) was “Active”, the Activity (Pseudomonas aeruginosa [23]) was “Active” and the Activity (Pseudomonas aeruginosa [24]) was “Active”. For the same compound, the Activity (Pseudomonas aeruginosa [25]) was “Active”, the Activity (Pseudomonas aeruginosa [26]) was “Active” and the Activity (Pseudomonas aeruginosa [27]) was “Active”. For the same compound, the “fold change (FC)” value (Pseudomonas aeruginosa [28]) was 15, the Activity [29] was “Non-Toxic” and the Activity [30] was “Toxic”. The Survival (Pseudomonas aeruginosa [31]) was 56 h, the survival at 50 µM (Pseudomonas aeruginosa [32]) was 91.2% and the Activity (Pseudomonas aeruginosa [33]) was “inactive”. For the same compound, the fold change (FC) (Pseudomonas aeruginosa [34]) was 2.
